Several values for one entry are separate records, joined by “and”; a condition that tells them apart may be missing. Equal entries are not always repeated.
Legend:
[1] = for vapor or sublimation pressure: Transpiration method; for Normal melting temperature: DTA
[2] = Molar enthalpy of transition or fusion; details: Crystal; DSC

CCn1cc(C(=O)O)c(=O)c2cc(F)c(N3CCNCC3)cc21 [norfloxacin]
[1], Crystal
Details | vapor or sublimation pressure [kPa]
423.15 K | 1.3e-06
425.15 K | 1.57e-06
427.15 K | 1.86e-06
429.15 K | 2.21e-06
431.15 K | 2.66e-06
432.15 K | 2.85e-06
434.15 K | 3.35e-06
436.15 K | 3.92e-06
438.15 K | 4.53e-06
440.15 K | 5.26e-06
442.15 K | 6.02e-06
444.15 K | 7.01e-06
446.15 K | 8.32e-06

[1]
Details | Normal melting temperature [°C] | Triple point temperature [K]
Crystal | 220.4 | –
Crystal 2, DSC | – | 468.7

Details | Molar enthalpy of transition or fusion [kJ/mol]
[2] | 36.1

C[C@H]1COc2c(N3CCN(C)CC3)c(F)cc3c(=O)c(C(=O)O)cn1c23 [levofloxacin]
[1], Crystal
Details | vapor or sublimation pressure [kPa]
437.15 K | 5.71e-06
439.15 K | 6.66e-06
441.15 K | 8.35e-06
443.15 K | 9.72e-06
445.15 K | 1.135e-05
447.15 K | 1.364e-05
449.15 K | 1.607e-05
451.15 K | 1.952e-05
453.15 K | 2.326e-05
455.15 K | 2.722e-05
457.15 K | 3.146e-05
459.15 K | 3.689e-05

[1]
Details | Normal melting temperature
Crystal | 233.0 °C
Metastable crystal | 227.0 °C and 230.5 °C

Details | Molar enthalpy of transition or fusion [kJ/mol]
[2] | 22

O=C(O)c1cn(C2CC2)c2cc(N3CCNCC3)c(F)cc2c1=O [ciprofloxacin]
[1], Crystal
Details | vapor or sublimation pressure [kPa]
436.15 K | 1.95e-06
438.15 K | 2.43e-06
440.15 K | 2.85e-06
442.15 K | 3.54e-06
444.15 K | 4.3e-06
446.15 K | 4.97e-06
448.15 K | 5.94e-06
450.15 K | 7.09e-06
452.15 K | 8.4e-06
454.15 K | 1.045e-05
456.15 K | 1.228e-05
458.15 K | 1.461e-05
460.15 K | 1.764e-05

Details | Normal melting temperature [°C]
[1], Crystal | 270

CCN1CCN(c2cc3c(cc2F)c(=O)c(C(=O)O)cn3C2CC2)CC1 [Enrofloxacin]
[1], Crystal
Details | vapor or sublimation pressure [kPa]
431.15 K | 1.79e-06
433.15 K | 2.13e-06
435.15 K | 2.5e-06
437.15 K | 2.92e-06
439.15 K | 3.41e-06
441.15 K | 4.04e-06
443.15 K | 4.71e-06
445.15 K | 5.49e-06
447.15 K | 6.61e-06
449.15 K | 7.56e-06
451.15 K | 8.91e-06
453.15 K | 1.035e-05

Details | Normal melting temperature [°C]
[1], Crystal | 221.6

Details | Molar enthalpy of transition or fusion [kJ/mol]
[2] | 32.9

O=C(O)c1ccccc1 [benzoic acid]
[1], Crystal
Details | vapor or sublimation pressure [kPa]
307.15 K | 0.000285
323.15 K | 0.001674
338.15 K | 0.007513
354.15 K | 0.0316

Reference: the NIST ThermoML archive (doi:10.1016/j.jct.2016.10.010)
